Key:
Assay type in all cases: cell-based, Human
MMP-13 = MMP-13 expression by real-time PCR in IL-1β-treated SW1353 cells; conditions: for MMP-13 Percent Change over Control: 1 h pretreatment, then IL-1β (5 ng/ml) 24 hr
Experimental: (§1) Human SW1353 chondrosarcoma cell line (ATCC, HTB-94) were grown in monolayer at 37° C., in a humidified atmosphere under 5% CO2, with Dulbecco's Modified Eagle Medium (DMEM) supplemented with 10% (v/v) fetal bovine serum (FBS) and 100 U/ml penicillin-streptomycin solution until 80% confluency with 0.1% v/v DMSO as a vehicle control.
(§2) The SW1353 cells were starved for 24 h with serum-free DMEM medium (containing 100 U/ml penicillin-streptomycin), and then pretreated with various concentrations of andrographolide and tamarind seed extract at three concentrations (in triplicate) for one hour, followed by addition of IL-1β (5 ng/ml) in culture media for an additional 24 hr. In addition, sulforaphane was tested as a positive control in the same manner as andrographolide and TSE, which is illustrated in FIG. 1E.
(§3) Real-time PCR was performed with the use of the SYBR Green PCR Master Mix (Applied Biosystems) according to the manufacturer's protocol and amplified on the ABI Prism 7000 sequence detection system. The results are illustrated in FIGS. 1A-1E, and in Table 1.

COX-2 = COX-2 expression by real-time PCR in IL-1β-treated SW1353 cells; conditions: 1 h pretreatment, then IL-1β (5 ng/ml) 24 hr
Experimental: as §1, §2
Real-time PCR was performed with the use of the SYBR Green PCR Master Mix (Applied Biosystems) according to the manufacturer's protocol and amplified on the ABI Prism 7000 sequence detection system.

IL-6 = IL-6 expression by real-time PCR in IL-1β-treated SW1353 cells; conditions: for IL-6 Percent Change over Control: 1 h pretreatment, then IL-1β (5 ng/ml) 24 hr
Experimental: as §1, §2, §3

IL-1A = IL-1A expression by real-time PCR in IL-1β-treated SW1353 cells; conditions: for IL-1A Percent Change over Control: 1 h pretreatment, then IL-1β (5 ng/ml) 24 hr
Experimental: as §1, §2, §3

SOX-9 = SOX-9 expression by real-time PCR in IL-1β-treated SW1353 cells; conditions: 1 h pretreatment, then IL-1β (5 ng/ml) 24 hr
Experimental: as §1, §2, §3

[1] = summary of Example 1, SW1353 cells, IL-1β

## C=C1CC[C@@H]2[C@](C)(CO)[C@H](O)CC[C@@]2(C)[C@@H]1C/C=C1/C(=O)OC[C@H]1O [Andrographolide, andrographolide]
MMP-13; Dose 2.78
  MMP-13 Percent Change over Control: 93.0%
MMP-13; Dose 8.33
  MMP-13 Percent Change over Control: 87.2%
MMP-13; Dose 25
  MMP-13 Percent Change over Control: 108.2%
MMP-13; [1]
  MMP-13, result in words: significant reduction
COX-2; Dose 2.78
  COX-2 Percent Change over Control: 27.1%
COX-2; Dose 8.33
  COX-2 Percent Change over Control: −22.8%
COX-2; Dose 25
  COX-2 Percent Change over Control: 59.8%
IL-6; Dose 2.78
  IL-6 Percent Change over Control: 46.7%
IL-6; Dose 8.33
  IL-6 Percent Change over Control: 62.8%
IL-6; Dose 25
  IL-6 Percent Change over Control: 101.3%
IL-6; [1]
  IL-6, result in words: significant reduction
IL-1A; Dose 2.78
  IL-1A Percent Change over Control: 28.3%
IL-1A; Dose 8.33
  IL-1A Percent Change over Control: 46.1%
IL-1A; Dose 25
  IL-1A Percent Change over Control: 73.1%
IL-1A; [1]
  IL-1, result in words: significant reduction
SOX-9; Dose 2.78
  SOX-9 Percent Change over Control: 14.2%
SOX-9; Dose 8.33
  SOX-9 Percent Change over Control: 10.8%
SOX-9; Dose 25
  SOX-9 Percent Change over Control: 40.5%

Reference: patent US20250134857A1, “Fast Acting Joint Health Composition and Use Thereof” (Lonza Greenwood LLC, priority 2022, published 2025)
